Where “and” joins values, the source holds several entries; their conditions need not be identical. Equal entries are not always repeated.
Tested on: 556581-035-R-J1-PDC spheroids with HUVEC/MSC, viability
Experiment: Anticancer human tumor 556581-035-R-J1-PDC patient-derived ovarian carcinoma cell line growth inhibition [IpAb]
Details: for viability, T/C: stronger effect = lower value
Summary of the method: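 Combinations with ipatasertib or abemaciclib were tested on tumour spheroids holding HUVEC (25%) and MSC (15%) alongside 60% malignant cells. Top concentration was at or near clinical Cmax (10 microM if undefined), descending in half-log steps.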

[1] = curve of first compound, second compound 0.01 µM
[2] = curve of first compound, second compound 0.0316 µM
[3] = curve of first compound, second compound 0.1 µM
[4] = curve of first compound, second compound 0.316 µM
[5] = curve of first compound, second compound 1 µM
[6] = second compound 0.1 µM, first compound 0.00949 µM
[7] = second compound 0.1 µM, first compound 0.03 µM
[8] = second compound 0.1 µM, first compound 0.0949 µM
[9] = second compound 0.1 µM, first compound 0.3 µM
[10] = second compound 0.316 µM, first compound 0.00949 µM
[11] = second compound 0.316 µM, first compound 0.03 µM
[12] = second compound 0.316 µM, first compound 0.0949 µM
[13] = second compound 0.316 µM, first compound 0.3 µM
[14] = second compound 1 µM, first compound 0.00949 µM
[15] = second compound 1 µM, first compound 0.03 µM
[16] = second compound 1 µM, first compound 0.0949 µM
[17] = second compound 1 µM, first compound 0.3 µM
[18] = second compound 0.01 µM, first compound 0.0316 µM
[19] = second compound 0.01 µM, first compound 0.1 µM
[20] = second compound 0.0316 µM, first compound 0.0316 µM
[21] = second compound 0.0316 µM, first compound 0.1 µM
[22] = second compound 0.1 µM, first compound 0.0316 µM
[23] = second compound 0.1 µM, first compound 0.1 µM
[24] = second compound 0.316 µM, first compound 0.0316 µM
[25] = second compound 0.316 µM, first compound 0.1 µM
[26] = second compound 1 µM, first compound 0.0316 µM
[27] = second compound 1 µM, first compound 0.1 µM
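Further: spheroids exposed to compounds for 7 days before readout.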

CC(=O)c1c(C)c2cnc(Nc3ccc(N4CCNCC4)cn3)nc2n(C2CCCC2)c1=O + CCN1CCN(Cc2ccc(Nc3ncc(F)c(-c4cc(F)c5nc(C)n(C(C)C)c5c4)n3)nc2)CC1
IC50 [1]: > 300 nM
IC50 [2]: > 300 nM
IC50 [3]: > 300 nM
IC50 [4]: > 300 nM
IC50 [5]: > 300 nM
viability, T/C (second compound 0.01 µM, first compound 0.000949 µM): 99.9%
viability, T/C (second compound 0.01 µM, first compound 0.003 µM): 106%
viability, T/C (second compound 0.01 µM, first compound 0.00949 µM): 117%
viability, T/C (second compound 0.01 µM, first compound 0.03 µM): 100%
viability, T/C (second compound 0.01 µM, first compound 0.0949 µM): 82.7%
viability, T/C (second compound 0.01 µM, first compound 0.3 µM): 88.3%
viability, T/C (second compound 0.0316 µM, first compound 0.000949 µM): 76.2%
viability, T/C (second compound 0.0316 µM, first compound 0.003 µM): 93.2%
viability, T/C (second compound 0.0316 µM, first compound 0.00949 µM): 101%
viability, T/C (second compound 0.0316 µM, first compound 0.03 µM): 91.3%
viability, T/C (second compound 0.0316 µM, first compound 0.0949 µM): 92.2%
viability, T/C (second compound 0.0316 µM, first compound 0.3 µM): 76.1%
viability, T/C (second compound 0.1 µM, first compound 0.000949 µM): 81.7%
viability, T/C (second compound 0.1 µM, first compound 0.003 µM): 84.4%
viability, T/C [6]: 82%
viability, T/C [7]: 87.3%
viability, T/C [8]: 80.2%
viability, T/C [9]: 89.1%
viability, T/C (second compound 0.316 µM, first compound 0.000949 µM): 89.5%
viability, T/C (second compound 0.316 µM, first compound 0.003 µM): 84.4%
viability, T/C [10]: 94.6%
viability, T/C [11]: 68.8%
viability, T/C [12]: 81.3%
viability, T/C [13]: 64%
viability, T/C (second compound 1 µM, first compound 0.000949 µM): 49.9%
viability, T/C (second compound 1 µM, first compound 0.003 µM): 57.8%
viability, T/C [14]: 46.6%
viability, T/C [15]: 55%
viability, T/C [16]: 49.8%
viability, T/C [17]: 54%

Cn1cnc2c(F)c(Nc3ccc(Br)cc3Cl)c(C(=O)NOCCO)cc21 + CC(C)NCC(C(=O)N1CCN(c2ncnc3c2C(C)CC3O)CC1)c1ccc(Cl)cc1
IC50 [3]: 473 nM
IC50 [4]: 218 nM
IC50 [5]: 55.3 nM
IC50 (curve of first compound, second compound 3.16 µM): < 9.49 nM
IC50 (curve of first compound, second compound 10 µM): < 9.49 nM
viability, T/C [6]: 91.4%
viability, T/C [7]: 89.3%
viability, T/C [8]: 81.6%
viability, T/C [9]: 55.5%
viability, T/C (second compound 0.1 µM, first compound 0.949 µM): 38.1%
viability, T/C (second compound 0.1 µM, first compound 3 µM): 14.7%
viability, T/C [10]: 69.1%
viability, T/C [11]: 60.5%
viability, T/C [12]: 61%
viability, T/C [13]: 46.4%
viability, T/C (second compound 0.316 µM, first compound 0.949 µM): 28.6%
viability, T/C (second compound 0.316 µM, first compound 3 µM): 14.2%
viability, T/C [14]: 59.7%
viability, T/C [15]: 55.6%
viability, T/C [16]: 46.1%
viability, T/C [17]: 31.7%
viability, T/C (second compound 1 µM, first compound 0.949 µM): 20.4%
viability, T/C (second compound 1 µM, first compound 3 µM): 7.02%
viability, T/C (second compound 3.16 µM, first compound 0.00949 µM): 45.9%
viability, T/C (second compound 3.16 µM, first compound 0.03 µM): 40.7%
viability, T/C (second compound 3.16 µM, first compound 0.0949 µM): 33.9%
viability, T/C (second compound 3.16 µM, first compound 0.3 µM): 25%
viability, T/C (second compound 3.16 µM, first compound 0.949 µM): 15.4%
viability, T/C (second compound 3.16 µM, first compound 3 µM): 6.95%
viability, T/C (second compound 10 µM, first compound 0.00949 µM): 37.3%
viability, T/C (second compound 10 µM, first compound 0.03 µM): 38.6%
viability, T/C (second compound 10 µM, first compound 0.0949 µM): 29.6%
viability, T/C (second compound 10 µM, first compound 0.3 µM): 21.2%
viability, T/C (second compound 10 µM, first compound 0.949 µM): 13.8%
viability, T/C (second compound 10 µM, first compound 3 µM): 3.58%

CCCS(=O)(=O)Nc1ccc(F)c(C(=O)c2c[nH]c3ncc(-c4ccc(Cl)cc4)cc23)c1F + CCN1CCN(Cc2ccc(Nc3ncc(F)c(-c4cc(F)c5nc(C)n(C(C)C)c5c4)n3)nc2)CC1
IC50 [1]: > 10000 nM
IC50 [2]: > 10000 nM
IC50 [3]: > 10000 nM
IC50 [4]: > 10000 nM
IC50 [5]: > 10000 nM
viability, T/C [18]: 114%
viability, T/C [19]: 106%
viability, T/C (second compound 0.01 µM, first compound 0.316 µM): 123%
viability, T/C (second compound 0.01 µM, first compound 1 µM): 116%
viability, T/C (second compound 0.01 µM, first compound 3.16 µM): 129%
viability, T/C (second compound 0.01 µM, first compound 10 µM): 71.9%
viability, T/C [20]: 99%
viability, T/C [21]: 97.2%
viability, T/C (second compound 0.0316 µM, first compound 0.316 µM): 109%
viability, T/C (second compound 0.0316 µM, first compound 1 µM): 104%
viability, T/C (second compound 0.0316 µM, first compound 3.16 µM): 110%
viability, T/C (second compound 0.0316 µM, first compound 10 µM): 60.9%
viability, T/C [22]: 128%
viability, T/C [23]: 113%
viability, T/C (second compound 0.1 µM, first compound 0.316 µM): 123%
viability, T/C (second compound 0.1 µM, first compound 1 µM): 104%
viability, T/C (second compound 0.1 µM, first compound 3.16 µM): 100%
viability, T/C (second compound 0.1 µM, first compound 10 µM): 61%
viability, T/C [24]: 105%
viability, T/C [25]: 98.4%
viability, T/C (second compound 0.316 µM, first compound 0.316 µM): 99.1%
viability, T/C (second compound 0.316 µM, first compound 1 µM): 93.9%
viability, T/C (second compound 0.316 µM, first compound 3.16 µM): 77.6%
viability, T/C (second compound 0.316 µM, first compound 10 µM): 57.6%
viability, T/C [26]: 67.7%
viability, T/C [27]: 54.9%
viability, T/C (second compound 1 µM, first compound 0.316 µM): 73.1%
viability, T/C (second compound 1 µM, first compound 1 µM): 61%
viability, T/C (second compound 1 µM, first compound 3.16 µM): 57.2%
viability, T/C (second compound 1 µM, first compound 10 µM): 59.8%

COc1c(OCCCN2CCOCC2)ccc2c3n(c(=NC(=O)c4cnc(N)nc4)nc12)CCN3
viability, T/C (compound 0.00316 µM): 72.5% and 103%
viability, T/C (compound 0.01 µM): 52.7% and 57.6%
viability, T/C (compound 0.0316 µM): 41.7% and 46.2%
viability, T/C (compound 0.1 µM): 32.3% and 38.2%
viability, T/C (compound 0.316 µM): 11% and 11.5%
viability, T/C (compound 1 µM): 2.47% and 3.86%
IC50 (curve of compound): 16.3 nM and 24.4 nM

CC(C)n1nc(-c2ccc3oc(N)nc3c2)c2c(N)ncnc21 + CCN1CCN(Cc2ccc(Nc3ncc(F)c(-c4cc(F)c5nc(C)n(C(C)C)c5c4)n3)nc2)CC1
IC50 [1]: 4.4 nM
IC50 [2]: 7.08 nM
IC50 [3]: 5.03 nM
IC50 [4]: 6.49 nM
IC50 [5]: < 0.316 nM
viability, T/C (second compound 0.01 µM, first compound 0.000316 µM): 108%
viability, T/C (second compound 0.01 µM, first compound 0.001 µM): 72.6%
viability, T/C (second compound 0.01 µM, first compound 0.00316 µM): 54.4%
viability, T/C (second compound 0.01 µM, first compound 0.01 µM): 44.2%
viability, T/C [18]: 26.4%
viability, T/C [19]: 22.2%
viability, T/C (second compound 0.0316 µM, first compound 0.000316 µM): 86.4%
viability, T/C (second compound 0.0316 µM, first compound 0.001 µM): 78.7%
viability, T/C (second compound 0.0316 µM, first compound 0.00316 µM): 60.7%
viability, T/C (second compound 0.0316 µM, first compound 0.01 µM): 46.8%
viability, T/C [20]: 27.5%
viability, T/C [21]: 19.7%
viability, T/C (second compound 0.1 µM, first compound 0.000316 µM): 89.6%
viability, T/C (second compound 0.1 µM, first compound 0.001 µM): 76.1%
viability, T/C (second compound 0.1 µM, first compound 0.00316 µM): 51.7%
viability, T/C (second compound 0.1 µM, first compound 0.01 µM): 45%
viability, T/C [22]: 26.4%
viability, T/C [23]: 20.2%
viability, T/C (second compound 0.316 µM, first compound 0.000316 µM): 80.1%
viability, T/C (second compound 0.316 µM, first compound 0.001 µM): 69.8%
viability, T/C (second compound 0.316 µM, first compound 0.00316 µM): 61.5%
viability, T/C (second compound 0.316 µM, first compound 0.01 µM): 44.2%
viability, T/C [24]: 28.7%
viability, T/C [25]: 21.6%
viability, T/C (second compound 1 µM, first compound 0.000316 µM): 41.9%
viability, T/C (second compound 1 µM, first compound 0.001 µM): 52.7%
viability, T/C (second compound 1 µM, first compound 0.00316 µM): 38.4%
viability, T/C (second compound 1 µM, first compound 0.01 µM): 31.9%
viability, T/C [26]: 28.4%
viability, T/C [27]: 23.1%
